“And” between values parts separate entries of the source, which are not always exact repeats. Equal entries are not always repeated.
Columns and labels:
Format in all cases: cell-based, human
[1] = system: dSH-SY5Y cells; assay: Internalisation of dGAE-488 into cells by confocal microscopy
Protocol: Undifferentiated SH-SY5Y human neuroblastoma cells were grown in Dulbecco's Modified Eagle Medium/Nutrient Mixture F-12 (DMEM/F-12) supplemented with 10% Foetal Calf Serum (FCS), 1% Penicillin/Streptomycin (P/S) and 1% L-glutamine. For differentiation, SH-SY5Y cells were plated at a density of 50,000 cells per well in 24-well plates or 300,000 cells per well in 6-well plates. For immunofluorescence, cells were plated onto Menzel-Gläser coverslips (Thermo Scientific). For live-cell imaging, cells were plated on 35-mm dishes on a 1.5-mm coverslip (Mattek). On the first day of differentiation, media was replaced with low-serum culture media (DMEM/F-12 containing 1% FCS, 1% P/S and 1% L-glutamine) containing 10 μM all-trans retinoic acid (RA) (Sigma-Aldrich) and cells were incubated for 48 h. On day 3, this process was repeated with fresh RA and cells were incubated for a further 48 h. On day 5, the cells were washed once in serum-free culture media to remove traces of serum. […] Differentiated cells (dSH-SY5Y) were ready to use for experiments on day 7. […]
(§1) FIJI (https://fiji.sc) imaging processing package (J. Schindelin et al., Nat. Methods, vol. 9, no. 7, pp. 676-682, (2012)) was used for all image analysis. For quantification of fluorescence intensities, images were Z-projected to maximal intensity. […] Area-integrated intensity and mean grey value were measured as well as three selections from around the cell with no fluorescence (background). The corrected total cell fluorescence (CTCF) was then calculated using the equation: […]
For quantification of internalised dGAE-488, a focal plane from the middle of the cell that contained maximal DAPI fluorescence was selected and subjected to analysis.
The uptake of soluble and aggregated dGAE into dSH-SY5Y cells was investigated in order to examine whether aggregation state affects the efficiency of internalisation. The labelled dGAE-488 form was used to permit uptake to be visualised and measured having corrected for total cell fluorescence. […]

[2] = system: endogenous tau in dSH-SY5Y cells; assay: Immunofluorescence of endogenous tau (AT180, AT8, Tau-1) after dGAE-488 exposure; details: 1 μM soluble dGAE-488, 24 h
Protocol: Cell culture medium was aspirated from dSH-SY5Y cells and washed once with PBS. Cells were fixed in 4% (w/v) paraformaldehyde (PFA) in PBS for 15 minutes followed by three washes in PBS. For permeabilization, the cells were incubated in 0.25% (v/v) Triton X-100 in PBS for 10 minutes. Cells were blocked in 2% (w/v) BSA in PBS for 1 h, followed by three washes in PBS. Primary antibodies diluted in 2% (w/v) BSA in PBS and were incubated with the cells for 1 h. The primary antibodies and dilutions used were; AT180 (anti-pT231) (1:250) (Thermo Scientific), AT8 (anti-pS202-T205) (1:500) (Thermo Scientific) and Tau1 (dephosphorylated tau at S195, 198, 199 and 202) (Merck Millipore). Cells were incubated with goat anti-mouse-Alexa Fluor® 594 (1:1000) (Invitrogen™, Thermo Scientific) diluted in 2% (w/v) BSA in PBS for 1 h in the dark. Cells were washed 3 times in PBS between antibody incubations. Cells were mounted onto glass slides using Prolong Gold mounting medium containing 4,6-diamidino-2-phenylindole (DAPI). […]
as §1
Therefore, it was further investigated whether internalised soluble dGAE-488 may be capable of altering the aggregation or phosphorylation state of endogenous tau. […] Cells were examined for colocalisation of internalised dGAE-488 and endogenous tau and the fluorescence intensity of labelled tau in the cell body was quantified in individual cells for each antibody. […] We have previously shown that tau dephosphorylated between amino acids 192-204 detected using Tau-1 antibody, is found in the nucleus in dSH-SY5Y cells (Maina et al., Acta Neuropath. Comm, Vol. 6 No. 70, pp 1-13 (2018)).

[3] = system: acidic vesicles (lysosomes and endosomes) in dSH-SY5Y cells; assay: LysoTracker labelling of acidic organelles and colocalisation with dGAE-488; details: soluble dGAE-488, 24 h; buffer 100±5.23%
Protocol: Cells were plated on 35-mm dishes on a 1.5-mm coverslip (Mattek). Following differentiation, dGAE-488 (5 μM) was added to the cells for 24 h. For labelling lysosomes and endosomes, LysoTracker® red (Life Technologies) was diluted in culture media at a final concentration of 50 nM and incubated for 90 mins before imaging using a Leica SP8 confocal microscope.
All confocal microscopy imaging was carried using a Leica SP8 confocal microscope. The instrument setting used PMT 3 and PMT Trans channels/lasers and images were acquired with a HC PLAPoCs2 63×/1.40 oil-immersion objective lens. Samples were scanned sequentially to prevent spectral bleed through. All images were collected as Z-stacks for all channels using a step size of 0.5 μm. Five to ten Z-stacks were taken for each sample and each experiment was repeated three times or more. […]
Intracellular fluorescent punctate particles were observed within the cytoplasm, close to the nucleus after 24 h of exposure of neurons to soluble dGAE-488. […] There was a significant increase in the intensity of the LysoTracker® fluorescence in cells exposed to soluble dGAE-488 compared to buffer-treated control cells (211.9±9.9%, p<0.0001; FIG. 6Ai, Aii).

## dGAE-488: dGAE covalently labelled with Alexa Fluor 488
[1]; aggregated (72 h agitated) dGAE-488, 1 μM, 24 h, mean±SEM, b194 prints AU per cell
  488 fluorescence intensity in the cell body (internalisation): 474.1±95.97 AU and 474±96 AU
[1]; soluble form, 5 μM dGAE-488, live confocal imaging t=0 h to 14 h
  incubation time at which internalised protein is detected in cells: 2 h
[2]; buffer 100±3.51%
  AT8 (pS202-T205) fluorescence intensity as a percentage of buffer-treated cells: 270.7±22.5%
[2]; buffer 100±5.2%
  AT180 (pT231) fluorescence intensity as a percentage of buffer-treated cells: 143.5±7.8%
[2]; buffer 100±7.3%
  Tau-1 (dephosphorylated tau) fluorescence intensity as a percentage of buffer-treated cells: 59.17±3.6%
[3]
  LysoTracker fluorescence intensity as a percentage of buffer-treated cells: 211.9±9.89% and 211.9±9.9%

— patent US20230266303A1, “SYSTEM” (GTINVENT LIMITED, priority 2020, published 2023)
